Results taken from the supplement of paper PMC13380429.

Tests used:
Conditions in all cases: 72 h
[1] = test system: Caco-2; experiment: drug sensitivity score (DSS) for viability; higher = more toxic; extreme values may be limits of the assay
[2] = test system: Calu-3; experiment: as above
[3] = test system: HepG2; experiment: as above
[4] = test system: U2OS; experiment: as above
[5] = test system: Vero E6; experiment: as above
[6] = test system: Caco-2; experiment: cell viability relative to DMSO; higher = less toxic
[7] = test system: Calu-3; experiment: as above
[8] = test system: HepG2; experiment: as above
[9] = test system: U2OS; experiment: as above
[10] = test system: Vero E6; experiment: as above
[11] = test system: Caco-2; experiment: relative viability EC50 (midpoint between 100% and the lowest measured viability); higher = less toxic
[12] = test system: Calu-3; experiment: as above
[13] = test system: HepG2; experiment: as above
[14] = test system: U2OS; experiment: as above
[15] = test system: Vero E6; experiment: as above

| SMILES | drug sensitivity score [1] | drug sensitivity score [2] | drug sensitivity score [3] | drug sensitivity score [4] | drug sensitivity score [5] | cell viability ([6]; 1 nM) [%] | cell viability ([6]; 10 nM) [%] | cell viability ([6]; 100 nM) [%] | cell viability ([6]; 1000 nM) [%] | cell viability ([6]; 10000 nM) [%] | cell viability ([7]; 1 nM) [%] | cell viability ([7]; 10 nM) [%] | cell viability ([7]; 100 nM) [%] | cell viability ([7]; 1000 nM) [%] | cell viability ([7]; 10000 nM) [%] | cell viability ([8]; 1 nM) [%] | cell viability ([8]; 10 nM) [%] | cell viability ([8]; 100 nM) [%] | cell viability ([8]; 1000 nM) [%] | cell viability ([8]; 10000 nM) [%] | cell viability ([9]; 1 nM) [%] | cell viability ([9]; 10 nM) [%] | cell viability ([9]; 100 nM) [%] | cell viability ([9]; 1000 nM) [%] | cell viability ([9]; 10000 nM) [%] | cell viability ([10]; 1 nM) [%] | cell viability ([10]; 10 nM) [%] | cell viability ([10]; 100 nM) [%] | cell viability ([10]; 1000 nM) [%] | cell viability ([10]; 10000 nM) [%] | relative viability EC50 [11] [nM] | relative viability EC50 [12] [nM] | relative viability EC50 [13] [nM] | relative viability EC50 [14] [nM] | relative viability EC50 [15] [nM] |
| --- | --- | --- | --- | --- | --- | --- | --- | --- | --- | --- | --- | --- | --- | --- | --- | --- | --- | --- | --- | --- | --- | --- | --- | --- | --- | --- | --- | --- | --- | --- | --- | --- | --- | --- | --- |
| CCS(=O)(=O)c1cccc(-c2cc(C(=O)NC3CCN(C)CC3)c(C)c3[nH]c4ncc(C)cc4c23)c1 [TAK-901] | 6.7 | 8 | 12.7 | 8.9 | 1.1 | 98.4 | 99.7 | 90.4 | 72 | 36.5 | 108 | 100 | 95.5 | 69.9 | 21.3 | 94.1 | 104 | 76.5 | 48.1 | 15.7 | 98.3 | 98.5 | 98.9 | 73.6 | 9.3 | 105 | 100 | 100 | 97 | 78.7 | 1060 | 1280 | 439 | 1430 | > 10000 |
| FC(F)(F)c1ccccc1-c1cc(C(F)(F)F)c2[nH]c(C3=NOC4(CCCCC4)C3)nc2c1 [TC-I-2014] | 0 | 0 | 0 | 0 | 0 | 91.9 | 95.5 | 96.8 | 93.4 | 89.8 | 112 | 105 | 97.7 | 99.8 | 97.7 | 91.6 | 103 | 97.4 | 98.4 | 89.3 | 106 | 103 | 103 | 100 | 90.7 | 95.6 | 98.8 | 90.1 | 94.8 | 89.5 | > 10000 | > 10000 | > 10000 | > 10000 | > 10000 |
| CC(C)c1ccccc1Cc1cc(C(=O)Nc2ccc(S(=O)(=O)c3ccccc3C(C)(C)C)cc2)c(O)c(O)c1O [TW-37] | 13.1 | 6.2 | 10.6 | 13 | 12 | 88.7 | 89.7 | 93.5 | 36.7 | 9.2 | 107 | 98.1 | 107 | 86 | 28.8 | 98.8 | 98.6 | 96.1 | 49.6 | 20.3 | 102 | 94.7 | 95.7 | 36.5 | 4.6 | 92.1 | 102 | 96.1 | 43.2 | 7.7 | 557 | 1750 | 704 | 654 | 746 |
| CC(C)C(=O)c1ccc(O)c(O)c1 [U-0521] | 0.5 | 0 | 0 | 0 | 0 | 98.6 | 102 | 101 | 88 | 97 | 102 | 96.9 | 102 | 94.4 | 97.4 | 96.3 | 77.3 | 109 | 114 | 105 | 99.8 | 95.4 | 100 | 97.3 | 93.6 | 108 | 104 | 102 | 97.6 | 92.9 | > 10000 | > 10000 | > 10000 | > 10000 | > 10000 |
| CCCN(CCC)[C@@H]1CCc2c(OC)cccc2[C@@H]1C [UH-232-(+)] | 0 | 0 | 0 | 0 | 0 | 95.6 | 100 | 97.1 | 93.6 | 92.7 | 102 | 104 | 103 | 102 | 95 | 97.7 | 103 | 87.2 | 102 | 95.8 | 108 | 106 | 104 | 101 | 99.4 | 95.9 | 102 | 96.5 | 101 | 100 | > 10000 | > 10000 | > 10000 | > 10000 | > 10000 |
| CC[C@]1(O)C[C@@H]2CN(CCc3c([nH]c4ccccc34)[C@@](C(=O)OC)(c3cc4c(cc3OC)N(C)[C@H]3[C@@](O)(C(=O)OC)[C@H](OC(C)=O)[C@]5(CC)C=CCN6CC[C@]43[C@@H]65)C2)C1 [Vinblastine (sulfate)] | 24.1 | 22 | 27.8 | 31.8 | 20.6 | 90.3 | 56.8 | 44.4 | 43.9 | 27.7 | 87.5 | 64.9 | 50.5 | 41.6 | 34.3 | 99.3 | 43.9 | 34.7 | 32.5 | 34.8 | 96.1 | 48.1 | 24.9 | 19.6 | 16.8 | 100 | 91.3 | 48.8 | 30.1 | 18.1 | 10.5 | 10.5 | 5.3 | 7.1 | 68.8 |
| CC[C@]1(O)C[C@H]2CN(CCc3c([nH]c4ccccc34)[C@@](C(=O)OC)(c3cc4c(cc3OC)N(C=O)[C@H]3[C@@](O)(C(=O)OC)[C@H](OC(C)=O)[C@]5(CC)C=CCN6CC[C@]43[C@@H]65)C2)C1 [Vincristine (sulfate)] | 23.3 | 19.1 | 24.3 | 24.7 | 14.4 | 91.9 | 66 | 42.5 | 41.4 | 34.8 | 88 | 78.2 | 54.8 | 39.6 | 34.6 | 109 | 68.4 | 39.2 | 35.4 | 36.9 | 97.1 | 80.8 | 35.4 | 19.5 | 17.6 | 98.9 | 102 | 82.9 | 34.2 | 29.8 | 9.4 | 24.8 | 10.2 | 30.2 | 196 |
